In patent US10463669B2, “Composition for treating or preventing liver cancer” (Seoul National University R&DB Foundation, priority 2016, dated 2019):
pIC50: −log10 of the molar value.

Experiments:
[1] = system: THLE-3 cells; assay: Cell proliferation / cell viability, MTS assay; format: cell-based, human
Protocol: THLE-3 cell line (immortalized human liver endothelial cell line produced by infection with SV40 large T antigen) was obtained from ATCC (American Type Culture Collection). Cell line authentication by KCLB and ATCC was carried out by using DNA fingerprinting as a short tandem repeat analysis. All cell lines were tested for mycoplasma contamination. […] As it has been recommended by the ATCC manual, THLE-3 cells were cultured in BEGM (Lonza) medium complemented with 10% fetal bovine serum in a humidified 5% CO2 incubator at 37° C.
As it has been described before (10), the cell viability was measured by using Cell Titer 96 MTS (Promega). Cells were sewn in an amount of 500 to 1000 cells per well, and then treated for 96 hours at a pharmaceutical concentration as described in each graph. Each analysis was repeated 3 times at least. After plotting the data, IC50 values were obtained by using GraphPad software. By using Flexstation 3 multimode plate reader (Molecular Devices), optical density showing formazan production was measured at 490 nm.

[2] = system: telomere length in THLE-3 cells; assay: Telomere length (immunoFISH, Flow FISH, quantitative PCR); format: cell-based, human
Protocol: Flow FISH was carried out as described before (Rufer N, et al., Nat Biotechnol. 1998; 16: 743-7) with few modifications. The cells were washed twice with cold PBS (phosphate-buffered saline) solution containing 0.1% w/v bovine serum albumin (BSA). Subsequently, the cells were re-suspended in hybridization buffer (70% deionized formamide (Amresco, Solon, Ohio, USA), 20 mmol/L TrisHCl [pH 6.8], 1% BSA, and 1 nmol/L FAM-labeled telomere PNA (telomere peptide nucleic acid) probe ([…], Korea), or 1 nmol/L FAM-labeled centromere PNA probe ([…]). Volume of the hybridization buffer was adjusted to 100 μl per 10^5 cells. Next, each sample was cultured for 10 minutes in a water bath at 85° C. […] Total 15,000 to 20,000 nuclei were analyzed for the each separate culture. Telomere fluorescence intensity of the all nuclei at […] phase of the cell cycle was measured by using BD FACS Calibur flow cytometer (Becton Dickinson, Franklin Lakes, N.J., USA) in which CELLQUEST software is used. […] For quantification of the telomere fluorescence intensity, centromere fluorescence intensity, and 8-oxo-dG fluorescence intensity, the same exposure time was employed. The telomere fluorescence level and 8-oxo-dG fluorescence level of tumor tissues were calculated by division of the fluorescence level in non-tumor tissues corresponding to 5 random fields. […]

[3] = system: Huh7 cells injected to subcutaneous tissues; assay: In vivo tumorigenicity analysis (xenograft of pre-treated cells); parameters: species or system KSN/Slc nude mouse
Protocol: The animal test was carried out according to the protocol which has been approved by Seoul National University Institutional Animal Care and Use Committee (Approval number: SNU-130225-6). The mouse was kept under usual conditions (i.e., semi-specific pathogen-free state), and allowed to have free access to food and water. For all xenografting studies, 5-week old KSN/Slc nude mouse was used. A mouse with bodyweight of 18 g to 20 g was used for the test. For the xenografting analysis, mock-treated 1×10^5 Huh7, 1×10^5 Huh7 treated only with 300 μmol/L H2O2, and 1×10^5 Huh7 treated with both of 25 μmol/L idelalisib and 300 μmol/L H2O2 were washed, harvested in PBS not containing Ca^2+ or Mg^2+, and subsequently injected in an amount of 0.2 mL to subcutaneous tissues. According to caliper measurement of two vertical diameters of a tumor (i.e., D1 as largest diameter and D2 as smallest diameter), the tumor product was monitored every week. The tumor volume was calculated by […].
Next, an examination was made to see whether or not idelalisib can have in vivo inhibition of tumor growth.

[4] = system: TERT expression in THLE-3 cells; assay: TERT expression, quantitative real time-PCR and immunoblot; format: cell-based, human
Protocol: (§1) Medium was exchanged every day, and the aforementioned cells were cultured for 4 days in 300 μmol/L hydrogen peroxide (H2O2) (Sigma Aldrich; H1009). In several experiments, the cells were treated for 1 hour with 5 mmol/L N-acetylcysteine (NAC) (Sigma Aldrich; A7250), 25 μmol/L idelalisib (LC Laboratoties, Woburn, Mass., USA; I-7447), 25 μmol/L perifosine (LC Laboratoties, Woburn, Mass., USA; P-6522), or 30 μmol/L GSK3β inhibitor (GSK3β inhibitor XI) (Santa Cruz; sc-204770) (31) before adding H2O2. Furthermore, sterilized distilled water (pH 7.0) was used as a negative control (i.e., mock treatment).
(§2) PCR was carried out by using TOPrealm qPCR 2×PreMIX (SYBR Green with high ROX) (Enzynomics, Daejeon, Korea; RT501M) and ABI Prism 7300 thermal cycler (Applied Biosystems, Foster City, Calif., USA). […] To examine the primer specificity, a dissociation step was additionally included.
(§3) Total 2×10^5 cells were boiled for 5 minutes in 2×SDS sample buffer (100 mmol/L TrisHCl [pH 6.8], 4% SDS, 0.2% bromophenol blue, 20% glycerol, and 200 mmol/L β-mercaptoethanol), and then subjected to SDS-PAGE and Western blotting. To detect the TERT, the cells were cultured in 2×SDS sample buffer for 15 minutes at 55° C. TERT-specific (1:300, Rockland Immunochemicals, Gilbertsville, Pa., USA; 600-401-252), AKT-specific (1:1000, Cell Signaling Technology; #9272), phospho-AKT-specific (1:2000, Cell Signaling Technology; #4060), GAPDH-specific (1:2000, Santa Cruz Biotechnology; sc-47724), or β-actin-specific (1:2000, Sigma-Aldrich, St. Louis, Mo., USA; A5441) antibody was diluted in 5% skim milk or bovine serum albumin with TBS-Tween 20, cultured overnight at 4° C., washed, and cultured with HRP-conjugated secondary antibody (1:1000, Abcam; ab131368, or ab131366). By using FUSION-SOLO imager (Vilber Lourmat, Marne La Vallee, France), a chemical fluorescence image was obtained.

[5] = system: TERT expression in HCC cell lines (Huh7 and Hep3B); assay: as above; format: cell-based, human
Protocol: as §1, §2, §3

[6] = THLE-3 cells exposed to 150 μmol/L H2O2

**Q.** What does the source list for OO [H2O2, hydrogen peroxide]?
**A.** cells that did not survive [1, 6]: 85%; telomere length [2, 6]: reduction; latency time till tumor development ([3]; nude mouse injected with 1×10^5 HCC cells treated with H2O2): 28 days; TERT expression level ([4]; THLE-3 cells after H2O2 treatment): no change; TERT expression increased by ([5]; HCC cells treated with 300 μmol/L H2O2, compared to control HCC cells not exposed to H2O2): 40%-45%

**Q.** How did the pIC50 ([1]; Homo sapiens, THLE3, MTS assay, treated for 96 hours) turn out when CC[C@H](Nc1ncnc2nc[nH]c12)c1nc2cccc(F)c2c(=O)n1-c1ccccc1 [idelalisib, 5-fluoro-3-phenyl-2-[(1S)-1-(7H-purin-6-ylamino)propyl]-4(3H)-quinazolinone] was run?
**A.** Its pIC50 is less than 3.70.

**Q.** And the telomere length ([2]; THLE-3 cells)?
**A.** Its telomere length is “not reduced”.

**Q.** What about the “time without tumor formation” value ([3]; nude mouse injected with HCC cells treated with both 300 μmol/L H2O2 and 25 μmol/L idelalisib) of the same compound?
**A.** The value was greater than 70 days.

**Q.** And the TERT expression ([4]; THLE-3 cells)?
**A.** Its TERT expression is “not reduced”.

**Q.** What about the “TERT expression reduced by” value ([5]; 300 μmol/L H2O2-treated HCC cells plus idelalisib, compared to HCC cells treated with H2O2 only) of the same compound?
**A.** The value was 65%-70%.

**Q.** What about the “ROS-mediated increase in the TERT expression” value ([5]; H2O2-treated cells) of the same compound?
**A.** The value was “almost completely inhibited”.

**Q.** And the TERT expression ([5]; two HCC cell lines, no H2O2)?
**A.** The TERT expression was “reduced”.
